# Assay results reported in the supplement of paper PMC10307832.
# Columns and labels:
# Test in all cases: relative viability (nuclei count vs DMSO), 5 days (fraction); higher = more cells survive
# OSI-027 + Trametinib = compound: COc1cccc2cc(-c3nc([C@H]4CC[C@H](C(=O)O)CC4)n4ncnc(N)c34)[nH]c12 [OSI-027] + CC(=O)Nc1cccc(-n2c(=O)n(C3CC3)c(=O)c3c(Nc4ccc(I)cc4F)n(C)c(=O)c(C)c32)c1 [Trametinib] (partner 0.02 µM)
# Method in brief: (§1)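 One day after seeding in 1536-well plates, lung cancer cell lines were dosed by pin tool. Dosing was either single-drug or a fixed anchor-drug dose plus five library-drug doses (not always all listed) in √10 steps. After 5 days, nuclei were stained in one fix-and-stain step and counted on 4× images, and relative viability is the nuclei count of treated wells over that of vehicle wells, given as the median of duplicate plates.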
# OSI-027 + Navitoclax = compound: COc1cccc2cc(-c3nc([C@H]4CC[C@H](C(=O)O)CC4)n4ncnc(N)c34)[nH]c12 [OSI-027] + CC1(C)CCC(c2ccc(Cl)cc2)=C(CN2CCN(c3ccc(C(=O)NS(=O)(=O)c4ccc(N[C@H](CCN5CCOCC5)CSc5ccccc5)c(S(=O)(=O)C(F)(F)F)c4)cc3)CC2)C1 [Navitoclax] (partner 0.5 µM)
# Method in brief: as §1
# Vemurafenib + Dasatinib = compound: CCCS(=O)(=O)Nc1ccc(F)c(C(=O)c2c[nH]c3ncc(-c4ccc(Cl)cc4)cc23)c1F [Vemurafenib] + Cc1nc(Nc2ncc(C(=O)Nc3c(C)cccc3Cl)s2)cc(N2CCN(CCO)CC2)n1 [Dasatinib] (partner 0.075 µM)
# Method in brief: as §1
# Alpelisib + Vorinostat = compound: Cc1nc(NC(=O)N2CCC[C@H]2C(N)=O)sc1-c1ccnc(C(C)(C)C(F)(F)F)c1 [Alpelisib] + O=C(CCCCCCC(=O)Nc1ccccc1)NO [Vorinostat] (partner 1 µM)
# Method in brief: as §1
Cell Line,relative viability (OSI-027 + Trametinib; first compound 0.01 µM),relative viability (OSI-027 + Trametinib; first compound 0.03162 µM),relative viability (OSI-027 + Trametinib; first compound 0.1 µM),relative viability (OSI-027 + Trametinib; first compound 0.3162 µM),relative viability (OSI-027 + Trametinib; first compound 1 µM),relative viability (OSI-027 + Navitoclax; first compound 0.01 µM),relative viability (OSI-027 + Navitoclax; first compound 0.03162 µM),relative viability (OSI-027 + Navitoclax; first compound 0.1 µM),relative viability (OSI-027 + Navitoclax; first compound 0.3162 µM),relative viability (OSI-027 + Navitoclax; first compound 1 µM),relative viability (Vemurafenib + Dasatinib; first compound 0.03162 µM),relative viability (Vemurafenib + Dasatinib; first compound 0.1 µM),relative viability (Vemurafenib + Dasatinib; first compound 0.3162 µM),relative viability (Vemurafenib + Dasatinib; first compound 1 µM),relative viability (Alpelisib + Vorinostat; first compound 0.04 µM),relative viability (Alpelisib + Vorinostat; first compound 0.1265 µM),relative viability (Alpelisib + Vorinostat; first compound 0.4 µM),relative viability (Alpelisib + Vorinostat; first compound 1.265 µM),relative viability (Alpelisib + Vorinostat; first compound 4 µM)
NCI-H1915,0.284,0.299,0.262,0.233,0.314,0.831,0.779,0.809,0.801,0.85,0.294,0.343,0.267,0.358,0.543,0.543,0.577,0.448,0.509
LC-2-ad,0.903,0.872,0.945,0.927,0.694,0.458,0.4,0.372,0.243,0.122,0.592,0.669,,0.559,0.664,0.721,0.744,0.575,0.496
NCI-H2126,0.54,0.593,0.526,0.447,0.537,0.885,0.856,0.818,0.679,0.801,0.562,0.584,,0.537,0.717,0.565,0.67,0.5,0.457
HOP-62,0.383,0.347,0.375,0.329,0.294,1.11,1.09,1.02,1.13,0.646,0.535,0.549,0.292,0.66,0.665,0.558,0.683,0.456,0.491
HARA,0.719,0.616,0.556,0.398,0.386,1.18,1.26,1.24,1.34,0.354,0.272,0.215,0.195,0.201,0.528,0.52,0.511,0.305,0.391
NCI-H2087,0.194,0.235,0.194,0.154,0.142,1.09,0.998,0.8,0.537,0.353,0.751,0.789,,0.897,0.808,0.669,0.583,0.647,0.853
NCI-H520,0.644,0.606,0.563,0.379,0.188,1.31,1.05,0.793,0.637,0.303,0.188,0.189,0.203,0.197,0.611,0.743,0.629,0.603,0.463
HCC-78,0.689,0.646,0.74,0.637,0.35,0.868,0.766,0.371,0.454,0.278,0.359,0.329,0.593,0.37,0.363,0.392,0.478,0.326,0.342
COR-L 105,0.406,0.396,0.394,0.376,0.459,0.899,0.782,0.886,0.636,0.429,0.317,,,0.316,0.867,0.86,0.784,0.668,0.838
NCI-H1437,0.43,0.406,0.493,0.39,0.248,1.12,1.01,1.14,1,0.487,0.338,0.336,0.296,0.325,0.886,0.886,0.963,0.734,0.692
